According to ChEMBL document CHEMBL4229532, “A series of camptothecin prodrugs exhibit HDAC inhibition activity” (Bioorg Med Chem, 2018):
The source made the active and inactive calls. No cut-off for these calls is given here.

Columns and labels:
[1] = molecular target: Histone deacetylase 1 (Homo sapiens, UniProt Q13547); assay: Inhibition of recombinant human HDAC1 expressed in baculovirus infected High5 insect cells using Ac-Lys-Tyr-Lys(epsilon-acetyl)-AMC as substrate after 24 hrs by fluorescence assay
Sequence of Histone deacetylase 1 (Q13547 whole entry): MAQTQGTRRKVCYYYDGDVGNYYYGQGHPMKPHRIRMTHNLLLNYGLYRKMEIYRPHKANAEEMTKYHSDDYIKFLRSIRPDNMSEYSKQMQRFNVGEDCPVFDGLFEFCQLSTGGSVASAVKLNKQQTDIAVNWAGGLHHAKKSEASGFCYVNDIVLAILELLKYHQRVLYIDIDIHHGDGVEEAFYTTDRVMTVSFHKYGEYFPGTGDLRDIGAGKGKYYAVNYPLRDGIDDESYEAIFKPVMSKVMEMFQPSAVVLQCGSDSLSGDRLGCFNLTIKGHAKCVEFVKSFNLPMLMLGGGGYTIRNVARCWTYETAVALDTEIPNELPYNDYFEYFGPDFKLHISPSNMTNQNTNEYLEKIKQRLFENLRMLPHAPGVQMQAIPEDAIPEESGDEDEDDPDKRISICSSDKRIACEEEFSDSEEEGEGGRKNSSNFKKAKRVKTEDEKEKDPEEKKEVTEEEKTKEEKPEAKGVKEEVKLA

[2] = molecular target: Histone deacetylase 3 (Homo sapiens, UniProt O15379); assay: Inhibition of recombinant human HDAC3 expressed in baculovirus infected High5 insect cells using Ac-Lys-Tyr-Lys(epsilon-acetyl)-AMC as substrate after 24 hrs by fluorescence assay
Sequence of Histone deacetylase 3 (O15379 whole entry): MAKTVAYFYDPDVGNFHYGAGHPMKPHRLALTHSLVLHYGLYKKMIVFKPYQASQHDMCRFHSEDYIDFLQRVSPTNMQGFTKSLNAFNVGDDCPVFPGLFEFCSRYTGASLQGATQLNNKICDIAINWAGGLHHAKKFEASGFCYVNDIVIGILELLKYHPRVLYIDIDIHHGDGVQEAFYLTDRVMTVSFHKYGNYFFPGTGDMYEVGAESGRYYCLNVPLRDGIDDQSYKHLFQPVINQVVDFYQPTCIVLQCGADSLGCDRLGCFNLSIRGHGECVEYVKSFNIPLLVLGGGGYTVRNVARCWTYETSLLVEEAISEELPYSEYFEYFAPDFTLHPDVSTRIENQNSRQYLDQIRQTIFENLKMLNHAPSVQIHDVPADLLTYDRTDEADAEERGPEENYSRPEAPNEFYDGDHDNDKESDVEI

[3] = molecular target: T1, Protein deacetylase HDAC6 (Homo sapiens, UniProt Q9UBN7); assay: Inhibition of recombinant human HDAC6 expressed in baculovirus infected High5 insect cells using Boc-Lys (epsilon-acetyl)-AMC as substrate after 3 hrs by fluorescence assay
T1 sequence (Q9UBN7 whole entry): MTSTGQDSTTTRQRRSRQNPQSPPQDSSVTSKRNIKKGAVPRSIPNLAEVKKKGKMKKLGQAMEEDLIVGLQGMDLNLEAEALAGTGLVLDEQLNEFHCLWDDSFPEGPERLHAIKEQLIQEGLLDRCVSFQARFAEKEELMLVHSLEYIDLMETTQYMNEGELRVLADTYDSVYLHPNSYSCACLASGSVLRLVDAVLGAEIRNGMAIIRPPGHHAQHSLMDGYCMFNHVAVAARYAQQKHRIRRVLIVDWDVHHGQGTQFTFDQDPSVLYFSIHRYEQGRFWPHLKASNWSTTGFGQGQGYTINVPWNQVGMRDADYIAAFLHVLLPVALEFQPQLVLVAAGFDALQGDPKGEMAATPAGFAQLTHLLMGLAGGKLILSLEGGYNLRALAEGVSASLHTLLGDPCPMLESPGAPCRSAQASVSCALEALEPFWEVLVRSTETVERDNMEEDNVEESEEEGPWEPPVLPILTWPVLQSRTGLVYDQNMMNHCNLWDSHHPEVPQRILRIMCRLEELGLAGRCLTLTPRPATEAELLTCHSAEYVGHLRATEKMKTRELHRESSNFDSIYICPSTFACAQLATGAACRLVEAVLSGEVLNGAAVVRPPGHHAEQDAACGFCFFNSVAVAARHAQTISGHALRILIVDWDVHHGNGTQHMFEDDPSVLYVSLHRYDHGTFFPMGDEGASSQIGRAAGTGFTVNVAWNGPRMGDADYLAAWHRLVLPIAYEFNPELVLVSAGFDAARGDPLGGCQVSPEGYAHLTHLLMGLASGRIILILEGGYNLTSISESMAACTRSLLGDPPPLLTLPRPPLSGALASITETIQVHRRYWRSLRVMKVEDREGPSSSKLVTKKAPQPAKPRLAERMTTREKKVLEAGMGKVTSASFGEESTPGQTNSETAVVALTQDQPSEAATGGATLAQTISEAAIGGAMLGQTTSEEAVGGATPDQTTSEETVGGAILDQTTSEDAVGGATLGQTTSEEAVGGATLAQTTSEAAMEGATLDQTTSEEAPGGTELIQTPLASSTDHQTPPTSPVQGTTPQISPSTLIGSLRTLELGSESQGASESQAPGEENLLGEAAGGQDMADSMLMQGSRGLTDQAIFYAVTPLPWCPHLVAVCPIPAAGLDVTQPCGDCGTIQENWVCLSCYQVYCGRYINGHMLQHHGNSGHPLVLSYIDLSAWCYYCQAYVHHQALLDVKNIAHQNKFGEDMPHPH

[4] = system: A549; assay: Antiproliferative activity against human A549 cells after 72 hrs by SRB assay; type: functional, cell-based; details: A549, 72 h
[5] = system: HCT-116; assay: Antiproliferative activity against human HCT116 cells after 72 hrs by SRB assay; type: functional, cell-based; details: HCT-116, 72 h
[6] = Stability of the compound in PBS at pH 7.4 at 50 uM by HPLC analysis; type: physicochemical; details: buffer, pH 7.4, 50 µM
[7] = Stability of the compound in PBS at pH 6 at 50 uM by HPLC analysis; type: physicochemical; details: buffer, pH 6, 50 µM
[8] = Stability of the compound in mouse plasma at 50 uM by HPLC analysis; type: ADME, cell-free
[9] = Stability of the compound in human plasma at 50 uM by HPLC analysis; type: ADME, cell-free
[10] = molecular target: T2, Protein deacetylase HDAC6 (Homo sapiens) (UniProt Q9UBN7); assay: Inhibition of HDAC6 in human HCT116 cells assessed as increase in acetylated tubulin levels at 1 to 10 uM after 24 hrs by Western blot analysis; type: cell-based
T2 sequence (whole entry): T1 sequence (Q9UBN7 whole entry)

[11] = molecular target: T2, Protein deacetylase HDAC6 (Homo sapiens); assay: Inhibition of HDAC6 in human A549 cells assessed as increase in acetylated tubulin levels at 1 to 10 uM after 24 hrs by Western blot analysis; type: cell-based
[12] = molecular target: T2, Protein deacetylase HDAC6 (Homo sapiens); assay: Inhibition of HDAC6 in human A549 cells assessed as increase in acetylated tubulin levels at 0.3 to 30 uM after 24 hrs by Western blot analysis; type: cell-based
[13] = molecular target: T2, Protein deacetylase HDAC6 (Homo sapiens); assay: Inhibition of HDAC6 in human HCT116 cells assessed as increase in acetylated tubulin levels at 0.3 to 30 uM after 24 hrs by Western blot analysis; type: cell-based
[14] = molecular target: T2, Protein deacetylase HDAC6 (Homo sapiens); assay: Inhibition of HDAC6 in human A549 cells assessed as increase in acetylated tubulin levels at 0.03 to 3 uM after 24 hrs by Western blot analysis; type: cell-based
[15] = molecular target: T2, Protein deacetylase HDAC6 (Homo sapiens); assay: Inhibition of HDAC6 in human HCT116 cells assessed as increase in acetylated tubulin levels at 0.03 to 3 uM after 24 hrs by Western blot analysis; type: cell-based
[16] = Half life in PBS at pH 7.4 at 50 uM by HPLC analysis; type: physicochemical
[17] = Half life in human plasma at 50 uM by HPLC analysis; type: ADME, cell-free
[18] = Half life in mouse plasma at 50 uM by HPLC analysis; type: ADME, cell-free

SMILES | IC50 [1] | IC50 [2] | IC50 [3] | IC50 [4] | IC50 [5] | also measured
CCc1c2c(nc3ccc(O)cc13)-c1cc3c(c(=O)n1C2)COC(=O)[C@]3(O)CC [7-ETHYL-10-HYDROXYCAMPTOTHECIN] |  |  |  | 1.62 to 7.33 nM | 0.78 nM | 
CCc1c2c(nc3ccc(OC(=O)N4CCN(C(=O)CCCCCCCCCCC(=O)NO)CC4)cc13)-c1cc3c(c(=O)n1C2)COC(=O)[C@]3(O)CC | 11000 nM | 27300 nM | 3570 nM |  |  | 
CCc1c2c(nc3ccc(OC(=O)N4CCN(C(=O)CCCCCCCC(=O)NO)CC4)cc13)-c1cc3c(c(=O)n1C2)COC(=O)[C@]3(O)CC | 19700 nM | 18800 nM | 9040 nM |  |  | 
CCc1c2c(nc3ccc(OC(=O)N4CCN(C(=O)CCCCCCC(=O)NO)CC4)cc13)-c1cc3c(c(=O)n1C2)COC(=O)[C@]3(O)CC | 5570 nM | 9320 nM | 12200 nM | 7230 nM | 6240 nM | Stability [6]: Stable; Stability [7]: Stable; Stability [8]: Unstable; Stability [9]: Stable; inhibition [12]: Active; inhibition [13]: Active
CCc1c2c(nc3ccc(O)cc13)-c1cc3c(c(=O)n1C2)COC(=O)[C@@]3(CC)OC(=O)CNC(=O)CCCCCCC(=O)O | 27700 nM | 34900 nM | 8660 nM | 111 nM | 23.2 nM | inhibition [10]: Active; inhibition [11]: Active
CCc1c2c(nc3ccc(OC(=O)N4CCN(C(=O)CCCCCCCCCC(=O)NO)CC4)cc13)-c1cc3c(c(=O)n1C2)COC(=O)[C@]3(O)CC | 17400 nM | 24600 nM | 4700 nM | 6730 nM | 3220 nM | inhibition [14]: Active; inhibition [15]: Active
CCc1c2c(nc3ccc(O)cc13)-c1cc3c(c(=O)n1C2)COC(=O)[C@@]3(CC)OC(=O)CNC(=O)CCCCCCC(=O)NO | 1960 nM | 1600 nM | 860 nM | 138 nM | 30.5 nM | Stability [7]: Unstable; half-life at 50 µM [16]: 5 h; half-life at 50 µM [17]: 6 h; half-life at 50 µM [18]: 1 h; inhibition [10]: inactive; inhibition [11]: inactive
CCc1c2c(nc3ccc(OC(=O)N4CCC(N5CCCCC5)CC4)cc13)-c1cc3c(c(=O)n1C2)COC(=O)[C@]3(O)CC [IRINOTECAN] |  |  |  | 1880 nM | 1630 nM | 
CCc1c2c(nc3ccc(OC(=O)N4CCN(C(=O)CCCCCCCCC(=O)NO)CC4)cc13)-c1cc3c(c(=O)n1C2)COC(=O)[C@]3(O)CC | 30100 nM | 25400 nM | 7020 nM |  |  | 
CCc1c2c(nc3ccc(OC(=O)N4CCN(C(=O)CCCCCC(=O)NO)CC4)cc13)-c1cc3c(c(=O)n1C2)COC(=O)[C@]3(O)CC | 13600 nM | 12000 nM |  |  |  | 

Further lines, with some results ahead:

IC50 [1] | IC50 [2] | IC50 [3] | IC50 [4] | IC50 [5] | SMILES | also measured
12600 nM | 11800 nM | 1070 nM |  |  | CCc1c2c(nc3ccc(O)cc13)-c1cc3c(c(=O)n1C2)COC(=O)[C@@]3(CC)OC(=O)CCCCCCCCCCC(=O)NO | 
970 nM | 990 nM | 210 nM |  |  | CCc1c2c(nc3ccc(O)cc13)-c1cc3c(c(=O)n1C2)COC(=O)[C@@]3(CC)OC(=O)CCCCCCCC(=O)NO | 
90 nM | 100 nM | 250 nM | 612 nM | 88 nM | CCc1c2c(nc3ccc(O)cc13)-c1cc3c(c(=O)n1C2)COC(=O)[C@@]3(CC)OC(=O)CCCCCCC(=O)NO | Stability [6]: Stable; Stability [7]: Stable; Stability [8]: Unstable; Stability [9]: Stable; inhibition [10]: inactive; inhibition [11]: inactive
710 nM | 780 nM | 320 nM |  |  | CCc1c2c(nc3ccc(O)cc13)-c1cc3c(c(=O)n1C2)COC(=O)[C@@]3(CC)OC(=O)CCCCCCCCC(=O)NO | 
27100 nM | 37200 nM | 6940 nM | 129 nM | 29 nM | CCc1c2c(nc3ccc(O)cc13)-c1cc3c(c(=O)n1C2)COC(=O)[C@@]3(CC)OC(=O)CCCCCCC(=O)O | inhibition [10]: Active; inhibition [11]: Active
110 nM | 100 nM | 220 nM | 245 nM | 46.2 nM | CCc1c2c(nc3ccc(O)cc13)-c1cc3c(c(=O)n1C2)COC(=O)[C@@]3(CC)OC(=O)CCCCCC(=O)NO | inhibition [10]: inactive; inhibition [11]: inactive
6180 nM | 5330 nM | 610 nM |  |  | CCc1c2c(nc3ccc(O)cc13)-c1cc3c(c(=O)n1C2)COC(=O)[C@@]3(CC)OC(=O)CCCCCCCCCC(=O)NO | 
